Measured values from PMC6118387, “In silico drug absorption tract: An agent-based biomimetic model for human oral drug absorption” (PLoS ONE, 2018).
Several values for one entry are separate records, joined by “and”; a condition that tells them apart may be missing. Identical values can stand only once. Like-named read-outs stand apart in the source and are kept apart here.

Legend:
[1] = model drug parameter fixed to literature reported value; cited from earlier work
[2] = Clinical bioequivalence study: plasma concentrations (LC-MS-MS) and noncompartmental PK after oral tablet; type: in vivo, human
[3] = midazolam, literature referent value, cited from earlier work
[4] = Referent clinical, midazolam 15 mg tablet oral, N = 15, mean ±1 SD
[5] = human, plasma, Referent clinical, midazolam 15 mg tablet oral, N = 15, mean ±1 SD

In the case of `Cc1ncc2n1-c1ccc(Cl)cc1C(c1ccccc1F)=NC2` [Midazolam, midazolam], the “logP, In silico Logarithm of partition coefficient” value [1] is given as 3.6, the CL/F [2, 4] is given as 57.72 ± 19.31 L/h and the V/F [2, 4] is given as 205.20 ± 56.75 L. The Tmax ([2]; Referent clinical, midazolam 15 mg tablet oral, N = 15, median) was 30 min, the Cmax ([2]; human, plasma, oral, 15 mg, midazolam, peak of the mean clinical concentration-time profile over 24 hours) was 90.2 ng/mL and the concentration at 0 h ([2]; human, plasma, po, 15 mg, midazolam 15 mg oral, plasma, mean (±1 SD) N=15, read-out: Concentration, Referent) was 0 ng/mL. The concentration at 0 h ([2]; human, plasma, po, 15 mg, midazolam 15 mg oral, plasma, one value per subject (columns A1-A8, B1-B7), read-out: Concentration, individual subjects) was 0 ng/mL, the concentration at 0.25 h ([2]; human, plasma, po, 15 mg, midazolam 15 mg oral, plasma, 0.25 h, mean (±1 SD) N=15, read-out: Concentration, Referent) was 12.2 ± 14.4 ng/mL and the concentration at 0.5 h ([2]; human, plasma, po, 15 mg, midazolam 15 mg oral, plasma, 0.5 h, mean (±1 SD) N=15, read-out: Concentration, Referent) was 90.2 ± 47.6 ng/mL. It also gave a concentration at 1 h ([2]; human, plasma, po, 15 mg, midazolam 15 mg oral, plasma, 1 h, mean (±1 SD) N=15, read-out: Concentration, Referent) of 56.6 ± 22.6 ng/mL, a concentration at 1.5 h ([2]; human, plasma, po, 15 mg, midazolam 15 mg oral, plasma, 1.5 h, mean (±1 SD) N=15, read-out: Concentration, Referent) of 46.8 ± 12.5 ng/mL and a concentration at 2 h ([2]; human, plasma, po, 15 mg, midazolam 15 mg oral, plasma, 2 h, mean (±1 SD) N=15, read-out: Concentration, Referent) of 47.8 ± 19.1 ng/mL. It also gave a concentration at 2.5 h ([2]; human, plasma, po, 15 mg, midazolam 15 mg oral, plasma, 2.5 h, mean (±1 SD) N=15, read-out: Concentration, Referent) of 41.1 ± 15.1 ng/mL, a concentration at 3 h ([2]; human, plasma, po, 15 mg, midazolam 15 mg oral, plasma, 3 h, mean (±1 SD) N=15, read-out: Concentration, Referent) of 40.3 ± 26.1 ng/mL and a concentration at 4 h ([2]; human, plasma, po, 15 mg, midazolam 15 mg oral, plasma, 4 h, mean (±1 SD) N=15, read-out: Concentration, Referent) of 32.4 ± 21.1 ng/mL. The concentration at 6 h ([2]; human, plasma, po, 15 mg, midazolam 15 mg oral, plasma, 6 h, mean (±1 SD) N=15, read-out: Concentration, Referent) was 15.6 ± 9.4 ng/mL, the concentration at 8 h ([2]; human, plasma, po, 15 mg, midazolam 15 mg oral, plasma, 8 h, mean (±1 SD) N=15, read-out: Concentration, Referent) was 9.33 ± 5.73 ng/mL and the concentration at 10 h ([2]; human, plasma, po, 15 mg, midazolam 15 mg oral, plasma, 10 h, mean (±1 SD) N=15, read-out: Concentration, Referent) was 5.75 ± 4.06 ng/mL. It also gave a concentration at 12 h ([2]; human, plasma, po, 15 mg, midazolam 15 mg oral, plasma, 12 h, mean (±1 SD) N=15, read-out: Concentration, Referent) of 3.48 ± 2.75 ng/mL, a concentration at 24 h ([2]; human, plasma, po, 15 mg, midazolam 15 mg oral, plasma, 24 h, mean (±1 SD) N=15, read-out: Concentration, Referent) of 0.41 ± 0.63 ng/mL and an AUC [2, 5] of 296 ± 126 ng·h/mL. For the same compound, the Cmax [2, 5] was 101 ± 33 ng/mL, the k el [2, 5] was 7.78e-05 s⁻¹ and the “Concentration, individual subjects” value ([2]; midazolam 15 mg oral, plasma, 2.5 h, one value per subject (columns A1-A8, B1-B7)) was 54.91 ng/mL and 40.38 ng/mL and 25.80 ng/mL and 40.78 ng/mL and 31.74 ng/mL and 48.76 ng/mL and 34.21 ng/mL and 20.63 ng/mL and 33.92 ng/mL and 30.24 ng/mL and 57.61 ng/mL and 24.84 ng/mL and 35.19 ng/mL and 58.33 ng/mL and 78.77 ng/mL. For the same compound, the “Concentration, individual subjects” value ([2]; midazolam 15 mg oral, plasma, 3 h, one value per subject (columns A1-A8, B1-B7)) was 52.06 ng/mL and 27.73 ng/mL and 21.71 ng/mL and 25.74 ng/mL and 36.83 ng/mL and 69.41 ng/mL and 35.36 ng/mL and 17.14 ng/mL and 26.32 ng/mL and 22.37 ng/mL and 41.78 ng/mL and 21.67 ng/mL and 38.29 ng/mL and 47.32 ng/mL and 120.12 ng/mL, the “Concentration, individual subjects” value ([2]; midazolam 15 mg oral, plasma, 4 h, one value per subject (columns A1-A8, B1-B7)) was 42.50 ng/mL and 20.80 ng/mL and 19.34 ng/mL and 20.60 ng/mL and 28.96 ng/mL and 77.03 ng/mL and 23.38 ng/mL and 14.36 ng/mL and 20.65 ng/mL and 15.37 ng/mL and 24.77 ng/mL and 22.90 ng/mL and 30.75 ng/mL and 41.37 ng/mL and 83.44 ng/mL and the “Concentration, individual subjects” value ([2]; midazolam 15 mg oral, plasma, 6 h, one value per subject (columns A1-A8, B1-B7)) was 24.75 ng/mL and 8.47 ng/mL and 11.09 ng/mL and 8.46 ng/mL and 15.04 ng/mL and 29.67 ng/mL and 12.43 ng/mL and 6.69 ng/mL and 9.53 ng/mL and 10.09 ng/mL and 12.41 ng/mL and 7.25 ng/mL and 15.05 ng/mL and 24.91 ng/mL and 38.15 ng/mL. For the same compound, the “Concentration, individual subjects” value ([2]; midazolam 15 mg oral, plasma, 8 h, one value per subject (columns A1-A8, B1-B7)) was 14.78 ng/mL and 4.58 ng/mL and 5.87 ng/mL and 3.98 ng/mL and 6.08 ng/mL and 15.63 ng/mL and 6.16 ng/mL and 4.20 ng/mL and 7.07 ng/mL and 8.11 ng/mL and 11.11 ng/mL and 3.58 ng/mL and 8.96 ng/mL and 17.42 ng/mL and 22.42 ng/mL, the “Concentration, individual subjects” value ([2]; midazolam 15 mg oral, plasma, 10 h, one value per subject (columns A1-A8, B1-B7)) was 9.22 ng/mL and 2.05 ng/mL and 4.27 ng/mL and 2.24 ng/mL and 3.91 ng/mL and 8.93 ng/mL and 3.37 ng/mL and 2.53 ng/mL and 5.05 ng/mL and 3.40 ng/mL and 6.04 ng/mL and 1.38 ng/mL and 5.79 ng/mL and 13.69 ng/mL and 14.29 ng/mL and the “Concentration, individual subjects” value ([2]; midazolam 15 mg oral, plasma, 12 h, one value per subject (columns A1-A8, B1-B7)) was 5.37 ng/mL and 1.26 ng/mL and 2.53 ng/mL and 1.54 ng/mL. The “F (absolute oral bioavailability)” value [3] was 31–72%, the “Fa × Fg” value [3] was 48–76% and the Fh [3] was 36–57%. The “Fa × Fg” value ([3]; listed as midazolam) was 48–76% and the Fh ([3]; listed as midazolam) was 36–57%.
